From PubChem BioAssay (NCI) come the findings set out here.

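Values below derive from 48-hour exposures of cells grown in 96-well plates, with endpoints linearly interpolated between the two concentrations bracketing the appropriate inhibition level. Definition used: TGI = concentration required for complete inhibition of growth.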

Some test systems named below: HOP-62 NSCLC; HT29 colon; SK-OV-3 ovarian; IGROV1 ovarian; SR leukemia; 786-0 renal; KM12 colon; SF-539 CNS; PC-3 prostate; SF-268 CNS; MDA-N.
Holding throughout (experiment): growth of human tumour cells (NCI), 48 h

As to `COc1cc2c(cc1OC(=O)c1cc3ccccc3[nH]1)N=C[C@@H]1CCCN1C2=O`, the TGI is 4.36 µM in the assay with HOP-62 NSCLC; 0.36 µM with HT29 colon; 15.2 µM with SK-OV-3 ovarian; over 39.6 µM with IGROV1 ovarian; 0.969 µM in the assay on SR leukemia; 4.23 µM in the assay on 786-0 renal. The TGI in the assay with KM12 colon is 3.15 µM; in the assay on SF-539 CNS, 1.17 µM; in the assay on PC-3 prostate, 6.93 µM; in the assay with SF-268 CNS, over 22.2 µM; in the assay on MDA-N, 0.375 µM.
As to `N#CCOc1cccc(C2(N3CC=CCC3)CCCCC2)c1`, the TGI in the assay on HOP-62 NSCLC, with HT29 colon, in the assay on SK-OV-3 ovarian, with IGROV1 ovarian, with SR leukemia and in the assay on 786-0 renal was over 100 µM throughout. Moreover, the TGI in the assay with KM12 colon, in the assay with SF-539 CNS, in the assay with PC-3 prostate, with SF-268 CNS and with MDA-N was over 100 µM each time.
Take `COc1ccc(-c2nnc(-c3ccncc3)o2)cc1`: the TGI in the assay with HOP-62 NSCLC, in the assay with HT29 colon, with SK-OV-3 ovarian, in the assay with IGROV1 ovarian, with SR leukemia and in the assay on 786-0 renal was over 100 µM each time. The TGI with SF-539 CNS, with PC-3 prostate, with SF-268 CNS and in the assay with MDA-N was over 100 µM throughout.
On to `COc1ccc(S(=O)(=O)Nc2ccc(-c3csc(N4C(=O)/C(=C/c5ccccc5)N=C4c4ccccc4)n3)cc2)cc1Cl`, for which the TGI in the assay with HOP-62 NSCLC, in the assay with HT29 colon, in the assay on SK-OV-3 ovarian, with IGROV1 ovarian, in the assay on SR leukemia and with 786-0 renal was over 100 µM each time. For the same molecule, the TGI with KM12 colon, in the assay on SF-539 CNS, in the assay on PC-3 prostate, with SF-268 CNS and with MDA-N was over 100 µM in each case.
Regarding `COc1c(-c2cccs2)oc2c(CC(=O)O)cccc2c1=O`, the TGI with HOP-62 NSCLC, with SK-OV-3 ovarian, in the assay on IGROV1 ovarian, in the assay with SR leukemia, in the assay on 786-0 renal and in the assay on SF-539 CNS was over 100 µM in each case. In addition, the TGI in the assay with PC-3 prostate and in the assay on MDA-N was over 100 µM throughout.
Regarding `CCCCCCCCCCCCCCCCCCOc1ccc(/C=C/C2=[N+](CCCl)CCO2)cc1`, the TGI in the assay on HOP-62 NSCLC, in the assay on HT29 colon, in the assay on SK-OV-3 ovarian, with IGROV1 ovarian, in the assay on SR leukemia and in the assay on 786-0 renal was over 100 µM throughout. Besides, the TGI in the assay on KM12 colon, with SF-539 CNS, in the assay with PC-3 prostate and in the assay on MDA-N was over 100 µM throughout.
For `CCOC(=O)C1C[C@H]2CO[C@H](c3ccccc3)N2C1=O` (stereo not given in full), the TGI in the assay on HT29 colon, with IGROV1 ovarian, in the assay on SR leukemia, in the assay with 786-0 renal, with KM12 colon and with SF-539 CNS was over 100 µM in each case. Also, the TGI in the assay with PC-3 prostate, in the assay with SF-268 CNS and with MDA-N was over 100 µM throughout.
For `Cc1cc2c(c(C(=O)NCCC(=O)N[C@@H](C)C(=O)OCc3ccccc3)c1)Oc1c(cc(C)cc1C(=O)NCCC(=O)N[C@@H](C)C(=O)OCc1ccccc1)S2`, the TGI in the assay with HOP-62 NSCLC, with HT29 colon, in the assay on SK-OV-3 ovarian, with IGROV1 ovarian, with SR leukemia and in the assay on 786-0 renal was over 100 µM throughout. For the same molecule, the TGI in the assay on KM12 colon, in the assay on PC-3 prostate, in the assay on SF-268 CNS and in the assay on MDA-N was over 100 µM throughout.
For `NC(=O)CCC(NC(=O)c1cccc2c(=O)c3ccccc3[nH]c12)C(=O)O` (stereo not given), the TGI in the assay on HOP-62 NSCLC, with HT29 colon, with SK-OV-3 ovarian, in the assay on IGROV1 ovarian, in the assay on SR leukemia and in the assay with 786-0 renal was over 100 µM each time. The TGI in the assay with KM12 colon, with PC-3 prostate, in the assay with SF-268 CNS and in the assay on MDA-N was over 100 µM throughout.
In the case of `Cc1ccc(C(=O)C2=CN=C3C(=O)N(c4ccccc4)N(C)C3(C)C2=N)cc1` (stereo not given), the TGI with SK-OV-3 ovarian, in the assay with IGROV1 ovarian, in the assay with SR leukemia, in the assay with 786-0 renal, in the assay on KM12 colon and in the assay with SF-539 CNS was over 100 µM in each case. The TGI in the assay on PC-3 prostate and with MDA-N was over 100 µM each time.
As for `CN1CCN(/C(N)=C(\C#N)C(=O)Nc2ccccc2)CC1`, the TGI in the assay on HOP-62 NSCLC, with SK-OV-3 ovarian, in the assay on IGROV1 ovarian, with SR leukemia, in the assay with 786-0 renal and in the assay on KM12 colon was over 100 µM each time. For the same molecule, the TGI in the assay on SF-539 CNS, with PC-3 prostate and with MDA-N was over 100 µM each time.
`O=S(=O)(O)c1cc(Nc2ccnc3ccccc23)c2c(S(=O)(=O)O)cc(S(=O)(=O)O)cc2c1`: the TGI in the assay on HOP-62 NSCLC, in the assay with HT29 colon, in the assay on SK-OV-3 ovarian, with IGROV1 ovarian, in the assay with 786-0 renal and in the assay on KM12 colon was over 100 µM throughout. Moreover, the TGI in the assay with SF-539 CNS, in the assay with PC-3 prostate, in the assay with SF-268 CNS and with MDA-N was over 100 µM throughout.
For `COc1ccc2oc(=Nc3ccc(F)cc3)c(C(N)=O)cc2c1`, the TGI with HOP-62 NSCLC was over 100 µM; in the assay with HT29 colon it was over 100 µM; with SK-OV-3 ovarian, 52.1 µM; in the assay with IGROV1 ovarian, over 100 µM; with SR leukemia it was over 100 µM; with 786-0 renal, 40.4 µM. The TGI in the assay with KM12 colon, in the assay on PC-3 prostate, in the assay with SF-268 CNS and in the assay with MDA-N was over 100 µM throughout.
As for `CN(C)CCNC(=O)c1cccc2[nH]c(-c3ccncc3)nc12`, the TGI in the assay with HOP-62 NSCLC is 52.8 µM; in the assay with HT29 colon, 7.27 µM; in the assay with IGROV1 ovarian, over 56.4 µM; in the assay with SR leukemia, over 100 µM; in the assay with 786-0 renal, 4.15 µM; in the assay with KM12 colon, over 35.7 µM. Moreover, the TGI was 6.82 µM in the assay with SF-539 CNS, over 24.3 µM in the assay on PC-3 prostate, 47.4 µM in the assay with SF-268 CNS and 3.27 µM in the assay with MDA-N.
Take `N#CCSc1c(-c2ccccc2)c(=O)n(-c2ccccc2)c(=S)n1-c1ccccc1`: the TGI in the assay with HOP-62 NSCLC, in the assay on HT29 colon, in the assay with SK-OV-3 ovarian, in the assay with IGROV1 ovarian, in the assay with SR leukemia and in the assay with 786-0 renal was over 100 µM each time. Further, the TGI in the assay on KM12 colon, with PC-3 prostate, in the assay on SF-268 CNS and in the assay with MDA-N was over 100 µM each time.
As to `COc1cccc2c1-c1c(OC)cccc1SS2`, the TGI in the assay on HOP-62 NSCLC is over 100 µM; in the assay on HT29 colon, 36.2 µM; in the assay with IGROV1 ovarian, 41.6 µM; in the assay with SR leukemia, 46.4 µM; with 786-0 renal, 36.2 µM; in the assay on KM12 colon, over 100 µM. In addition, the TGI was 33.4 µM in the assay with SF-539 CNS, over 100 µM in the assay with PC-3 prostate, 80 µM with SF-268 CNS and 8.15 µM in the assay on MDA-N.
On to `COc1nc2ccc(CNc3ccc(C(=O)O)cc3)cc2nc1OC`, for which the TGI in the assay on HOP-62 NSCLC, with HT29 colon, in the assay on SK-OV-3 ovarian, in the assay on IGROV1 ovarian, in the assay on 786-0 renal and in the assay with KM12 colon was over 10 µM in each case. Also, the TGI with SF-539 CNS, with PC-3 prostate, in the assay with SF-268 CNS and in the assay with MDA-N was over 10 µM throughout.
Take `Cc1c(O)c(=O)ccn1CCc1c[nH]c2ccccc12`: the TGI in the assay with HOP-62 NSCLC was over 100 µM; with HT29 colon, 32.7 µM; with SK-OV-3 ovarian, over 100 µM; in the assay with SR leukemia, 49.2 µM; in the assay with 786-0 renal, 9.06 µM; in the assay on KM12 colon it was over 100 µM. Besides, the TGI in the assay with SF-539 CNS was 49.6 µM; in the assay on PC-3 prostate it was over 100 µM; in the assay on SF-268 CNS, 8.77 µM; in the assay with MDA-N, over 100 µM.
In the case of `CCC/C(Cl)=N\OC(=O)Nc1ccc(F)c([N+](=O)[O-])c1`, the TGI amounted to 34.9 µM in the assay on HOP-62 NSCLC; 45.3 µM in the assay on HT29 colon; 78.9 µM with SK-OV-3 ovarian; 28.7 µM in the assay with IGROV1 ovarian; 40 µM with 786-0 renal; 32.7 µM in the assay with KM12 colon. The TGI in the assay on SF-539 CNS is 42.9 µM; with PC-3 prostate it was 28.5 µM; with SF-268 CNS, 29.2 µM; in the assay on MDA-N, 47.6 µM.
Regarding `CC(O)c1cc2c(s1)C(=O)c1scc(C(C)O)c1C2=O` (stereo not given), the TGI in the assay with HT29 colon was 5.27 µM; with SK-OV-3 ovarian, 7.76 µM; in the assay on IGROV1 ovarian, 3.63 µM; with SR leukemia it was over 100 µM; in the assay with 786-0 renal, 6.39 µM; in the assay on PC-3 prostate it was 3.48 µM. Besides, the TGI turned out to be 0.889 µM in the assay with SF-268 CNS and 0.421 µM with MDA-N.
